From US20200352913A1, “NEW METHOD FOR TREATING DENGUE VIRUS INFECTION” (INSERM (INSTITUT NATIONAL DE LA SANTÉ ET DE LA RECHERCHE …, priority 2017, published 2020)
“Also recorded” adds a separate entry of the source.

Key:
DENV2_16681 [1] = conditions: Diamond et al., 2002; targets de novo purine biosynthesis pathway; cited from earlier work
DENV2_16681 [2] = assay: DENV infection of HeLa cells pre-incubated with drug (FIG. 2A); format: cell-based, Dengue virus
Protocol: (§1) FIG. 2. […] (A) HeLa cells were pre-incubated for 24h with increased concentration of NGI-1, or for 3h with MPA prior infection with DENV2_16681 (MOI 5). MPA, Mycophenolic acid. (B) Replication kinetics of DENV2 in HeLa replicon cells challenged with NGI-1 (2 μM) or MPA (10 μM) along the experiment duration. (C) Supernatants from HEK-293T cells transfected with FLAG-NS plasmids, were subjected to ELISA to quantify secreted NS1. (D) HeLa cells were incubated for 24 hours with NGI-1 and challenged in continuous presence of the drug with DENV1 (MOI 1), DENV2_16681 (MOI 5), DENV2_JAM (MOI 5), DENV3_THAI (MOI 5), WNV (MOI 1), ZIKV (MOI 1), CHIKV (MOI 5) or HSV (MOI 0.3). (E) Similarly treated primary skin fibroblast and monocyte derived dendritic cells (MDDC) were challenged with DENV2_16681 (MOI 5) and ZIKV_HD78788 (MOI 2). (D and E) The levels of infected cells were assessed 24h post infection by flow cytometry using respective anti-viral antibodies. (A-E) Data shown are means±SD of two independent experiments. Significance was calculated using a one-way ANOVA statistical test with a Dunnett's multiple (A, B and C) or Tukey comparison test (D and E). (n.s., not significant; **p<0.001; […]).
(§2) The OST complex is known to be required for flavivirus infection through mechanisms that are poorly understood (Marceau et al., 2016; Savidis et al., 2016; Zhang et al., 2016). […]

secreted NS1 = assay: ELISA of secreted NS1 in supernatants (FIG. 2C); format: cell-based, DENV
Protocol: as §1, §2

WNV = assay: Infection of HeLa cells by WNV, flow cytometry (FIG. 2D); format: cell-based, West Nile virus; conditions: MOI 1, 24h post infection
Protocol: as §1

HSV = assay: Infection of HeLa cells by HSV, flow cytometry (FIG. 2D); format: cell-based; conditions: MOI 0.3, 24h post infection
Protocol: as §1

Cell proliferation = Cell proliferation over time (FIG. 3); format: cell-based; conditions: NGI-1 2 μM, measured over time, RLU
Protocol: FIG. 3. Cell proliferation is not affected by NGI-1. Cell proliferation is measured over time after incubation with NGI-1 (2 μM), MPA (10 μM) or respective mock control. Data shown are means±S.D. of one representative experiment of three replicates. RLU, relative light units.

[3] = test system: DENV1, DENV2_16681, DENV2_JAM, DENV3_THAI; assay: Infection of HeLa cells by DENV serotypes, flow cytometry (FIG. 2D); format: cell-based, Dengue virus; conditions: 24 h pre-incubation, continuous drug, 24h post infection
Protocol: as §1

DENV2_16681 [4] = assay: DENV infection of monocyte-derived dendritic cells (FIG. 2E); format: cell-based, Dengue virus; conditions: DENV2_16681 MOI 5, 24h post infection
Protocol: as §1

[5] = test system: DENV2 replicon (vRNA amplification); assay: Replication kinetics of DENV2 in HeLa replicon cells (FIG. 2B); format: cell-based, Dengue virus; conditions: NGI-1 2 μM
Protocol: as §1, §2

DENV2_16681 [6] = assay: DENV infection of human primary skin fibroblasts (FIG. 2E); format: cell-based, Dengue virus; conditions: DENV2_16681 MOI 5, 24h post infection
Protocol: as §1

[7] = data not shown
Source text: (§3) The OST complex is known to be required for flavivirus infection through mechanisms that are poorly understood (Marceau et al., 2016; Savidis et al., 2016; Zhang et al., 2016). In mammalians, there are two OST complexes, each composed of a catalytic subunit isoform (STT3A or STT3B) associated with a set of shared subunits (RPN1, RPN2, DDOST, DAD1 and OST4) (Cherepanova et al., 2016). Their main function is to transfer a preassembled oligosaccharide to selected asparagine residues within the consensus sequence asparagine-X-serine/threonine (Cherepanova et al., 2016). […] To test whether the OST complex contributes to NS1 or NS4B N-glycosylation, we transfected HEK-293T cells with a siRNA pool targeting RPN1, DDOST, STT3A or STT3B. […] We then examined the effect of NGI-1, a recently discovered N-linked glycosylation inhibitor that directly and reversibly interacts with the OST catalytic subunits (Lopez-Sambrooks et al., 2016). […] To pinpoint the effect of hypoglycosylation on NS1 stability, we transfected HEK-293T cells with plasmids encoding FLAG-NS1 WT or mutants lacking the first (N130Q), the second (N207Q), or both N-linked glycosylation sites (N130Q/N207Q) (data not shown).

DENV NS1 glycosylation = DENV NS1 glycosylation under NGI-1 (immunoblot, data not shown); format: cell-based; conditions: dose dependent
Source text: as §3

ZIKV NS1 glycosylation = ZIKV NS1 glycosylation under NGI-1 (immunoblot, data not shown); format: cell-based; conditions: dose dependent
Source text: as §3

Row | Structure (SMILES) | DENV replication inhibition (literature) (DENV2_16681 [1]) | antiviral activity compared with MPA (DENV2_16681 [2]; FIGS. 2A and B, NGI-1 2 μM, MPA 10 μM in replicon cells) | DENV infection (DENV2_16681 [2]; HeLa cells, 24h pre-incubation with increased concentration of NGI-1, DENV2_16681 MOI 5, dose dependent) | NS1 secretion (secreted NS1) | infection by WNV (WNV) | infection by HSV (HSV) | cell proliferation / antiproliferative effects (Cell proliferation) | infection by the four DENV serotypes [3] | DENV infection of monocyte-derived dendritic cells (DENV2_16681 [4]) | vRNA amplification [5] | DENV infection of human primary skin fibroblasts (DENV2_16681 [6]) | cytotoxicity [7] | DENV NS1 glycosylation (DENV NS1 glycosylation) | ZIKV NS1 glycosylation (ZIKV NS1 glycosylation)
1 | COc1c(C)c2c(c(O)c1C/C=C(\C)CCC(=O)O)C(=O)OC2 [MPA, mycophenolic acid] | a well-known DENV replication inhibitor |  |  |  |  |  |  |  |  |  |  |  |  | 
2 | Cc1cnc(NC(=O)c2cc(S(=O)(=O)N(C)C)ccc2N2CCCC2)s1 [NGI-1] |  | comparable to mycophenolic acid | significantly inhibited | impaired | blocked | not | not affected; also recorded: without any significant cytotoxicity (data not shown) or antiproliferative effects | blocked | significantly reduced | blocked | significantly reduced | without any significant cytotoxicity | strongly impaired | strongly impaired
